This passage reports IC50 results from patent US20220396577A1, “NOVEL SUBSTITUTED 1,3-8-TRIAZASPIRO[4,5] DECANE-2,4-DIONE COMPOUNDS AS INDOLEAMINE 2,3-DIOXYGENASE (IDO) AND/OR TRYPTOPHAN 2,3-DIOXYGENASE (TDO) INHIBITORS” (Merck Sharp & Dohme LLC, priority 2019, published 2022).

The target in the assay is T1, FLT3(D835Y) (Homo sapiens, UniProt P36888, D835Y).
T1 sequence (P36888 27-993 D835Y): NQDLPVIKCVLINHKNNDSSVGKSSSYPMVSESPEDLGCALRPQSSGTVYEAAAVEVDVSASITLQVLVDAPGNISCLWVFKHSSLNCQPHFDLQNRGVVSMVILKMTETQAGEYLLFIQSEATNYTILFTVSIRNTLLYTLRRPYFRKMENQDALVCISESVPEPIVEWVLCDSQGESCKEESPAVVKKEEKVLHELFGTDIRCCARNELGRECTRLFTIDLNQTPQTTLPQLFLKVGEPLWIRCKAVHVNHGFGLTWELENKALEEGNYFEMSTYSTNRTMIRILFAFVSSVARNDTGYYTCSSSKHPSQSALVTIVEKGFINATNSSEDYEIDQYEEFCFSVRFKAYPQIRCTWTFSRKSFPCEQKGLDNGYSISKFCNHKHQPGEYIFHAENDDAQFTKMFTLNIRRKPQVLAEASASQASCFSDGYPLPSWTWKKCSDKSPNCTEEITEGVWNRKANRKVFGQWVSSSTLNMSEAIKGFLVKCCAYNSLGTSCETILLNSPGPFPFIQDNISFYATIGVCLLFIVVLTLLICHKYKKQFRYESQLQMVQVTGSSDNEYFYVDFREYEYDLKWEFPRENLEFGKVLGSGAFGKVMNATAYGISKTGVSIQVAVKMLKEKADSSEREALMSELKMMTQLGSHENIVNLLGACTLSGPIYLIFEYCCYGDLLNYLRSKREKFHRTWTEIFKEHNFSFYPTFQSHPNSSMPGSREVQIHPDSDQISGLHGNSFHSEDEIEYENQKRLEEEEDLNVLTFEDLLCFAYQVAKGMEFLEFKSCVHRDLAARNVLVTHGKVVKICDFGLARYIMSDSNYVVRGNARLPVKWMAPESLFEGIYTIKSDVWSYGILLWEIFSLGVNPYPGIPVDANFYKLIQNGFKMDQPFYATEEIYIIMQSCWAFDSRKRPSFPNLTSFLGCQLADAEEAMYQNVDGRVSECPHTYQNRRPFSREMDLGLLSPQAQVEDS
Briefly: Off-target kinase panel, ZLYTE: FLT3(D835Y). Format: biochemical. As to conditions: read-out: Estimated IC50 (uM) FLT3(D835Y). From the text:
The activity data was obtained in a panel of 265 and 264 for compounds 1-1 and CC-1, respectively, using the ZLYTE and ADAPTA assay methods indicated in the table below.
The ZLYTE biochemical assay employs a fluorescence-based, coupled-enzyme format and is based on the differential sensitivity of phosphorylated and non-phosphorylated peptides to proteolytic cleavage. The peptide substrate is labeled with two fluorophores—one at each end—that make up a Fluorescence Resonance Energy Transfer (FRET) pair.
In the primary reaction, the kinase transfers the gamma-phosphate of ATP to a single tyrosine, serine or threonine residue in a synthetic FRET-peptide. In the secondary reaction, a site-specific protease recognizes and cleaves non-phosphorylated FRET-peptides. Phosphorylation of FRET-peptides suppresses cleavage by the Development Reagent. […] A ratiometric method, which calculates the ratio (the Emission Ratio) of donor emission to acceptor emission after excitation of the donor fluorophore at 400 nm, is used to quantitate reaction progress, as shown in the equation below. […]
Both cleaved and uncleaved FRET-peptides contribute to the fluorescence signals and therefore to the Emission Ratio. The extent of phosphorylation of the FRET-peptide can be calculated from the Emission Ratio. […]
10. Read on fluorescence plate reader and analyze the data.

Turning to `O=C1NC(=O)C2(CCN(c3cc(Cl)cc4[nH]ncc34)CC2)N1` [CC-1], the IC50 (as a rule, the point on the concentration scale where inhibition reaches its midpoint) is 1.5 µM.
